In patent US11040954B1, “CXCR3 receptor agonists” (RECEPTOS LLC, priority 2016, dated 2021):

Molecular target: T1, CXCR3 (Homo sapiens, UniProt P49682)
T1 construct: host or cells: CHO-K1 (cAMP Hunter CHOK1 CXCR3 Gi cell line)
T1 sequence (P49682 1-368): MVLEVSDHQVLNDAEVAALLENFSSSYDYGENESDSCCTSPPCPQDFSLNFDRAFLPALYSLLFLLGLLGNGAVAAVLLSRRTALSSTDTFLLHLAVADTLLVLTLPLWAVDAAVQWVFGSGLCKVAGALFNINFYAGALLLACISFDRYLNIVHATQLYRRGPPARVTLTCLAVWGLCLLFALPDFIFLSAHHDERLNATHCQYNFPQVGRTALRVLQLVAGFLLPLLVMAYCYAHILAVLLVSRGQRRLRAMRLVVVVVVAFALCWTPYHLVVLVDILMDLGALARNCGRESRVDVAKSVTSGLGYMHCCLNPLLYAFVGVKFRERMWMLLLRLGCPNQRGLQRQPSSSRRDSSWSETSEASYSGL
Assay: CXCR3 cAMP agonist assay (cAMP Hunter CHOK1 CXCR3 Gi cell line, forskolin-stimulated, HitHunter cAMP detection)
Format: cell-based
Conditions: cAMP Hunter CHOK1 CXCR3 Gi cells, 20 μM forskolin, 30 minutes; read-out: Activity (CXCR3 cAMP agonist assay compound EC50)
Protocol: The cAMP Hunter™ CHOK1 CXCR3 Gi cell line was purchased from DiscoveRx. Cells were seeded into a 96-well white assay plate at 50,000 cells/well/94 μl assay buffer (Hank's Buffered Saline Solution, 10 mM HEPES, 0.1% fatty acid-free BSA, pH 7.4) and immediately assayed in suspension. Forskolin was added to 20 μM (5 μl of 400 μM stock) simultaneously with a 12-point dose response curve of compound at 0-10 μM (1 μl of 100× stock in 100% DMSO), and cells were incubated for 30 minutes. A cAMP standard curve is run as an assay control. A CXCL11 dose response was included to determine maximum efficacy. Direct detection of cAMP was carried out using the DiscoveRx HitHunter cAMP kit according to manufacturer's instructions, and luminescence was read using a SpectraMax M5 plate reader.

| Compound | EC50 |
| --- | --- |
| COC1CCN(C(=O)CCC(=O)N2Cc3ccccc3C[C@H]2C(=O)N[C@@H](CCN)C(=O)Nc2ccc(Cl)c(C)c2)C1 (stereo partly shown) [Compound 12-64] | < 50 nM |
| Cc1cc(NC(=O)[C@H](CCN)NC(=O)[C@@H]2Cc3ccccc3CN2C(=O)CCC(=O)N(C)CCC(C)(C)C)ccc1Cl [Compound 12-98] | < 50 nM |
| Cc1cc(NC(=O)[C@H](CCN)NC(=O)[C@@H]2Cc3ccccc3CN2C(=O)CCC(=O)N2CCN(C(C)(C)C)CC2)ccc1Cl [Compound 12-102] | 50 to 250 nM |
| Cc1cc(NC(=O)C(CC2CCN(C)CC2)NC(=O)[C@@H]2Cc3ccccc3CN2C(=O)CCC(=O)c2ccccc2)ccc1Cl (mixture of isomers) [Compound 6-1, (S)—N—((S)-1-((4-chloro-3-methylphenyl)amino)-3-(1-methylpiperidin-4-yl)-1-oxopropan-2-yl)-2-(4-oxo-4-phenylbutanoyl)-1,2,3,4-tetrahydroisoquinoline-3-carboxamide] | 50 to 250 nM |
| NCC[C@H](NC(=O)[C@@H]1Cc2ccccc2CN1C(=O)CCC(=O)c1ccccc1)C(=O)Nc1ccc2scnc2c1 [Compound 2-80] | 250 to 500 nM |
| Cc1cc(NC(=O)[C@H](CCN)NC(=O)[C@@H]2Cc3ccccc3CN2C(=O)CCC(=O)c2ccccc2)cc(Cl)c1Cl [Compound 4-18] | 50 to 250 nM |
| Cc1cc(NC(=O)[C@H](CCN)NC(=O)[C@@H]2Cc3ccccc3CN2C(=O)CCC(=O)N2CCCCC2(C)C)ccc1Cl [Compound 12-26] | < 50 nM |
| Cc1cc(NC(=O)[C@H](CCN)NC(=O)[C@@H]2Cc3ccccc3CN2C(=O)CCC(=O)N2CCC(C)(C)C2)ccc1Cl [Compound 12-29] | < 50 nM |
| COc1cc(C)ccc1NC(=O)[C@H](CCN)NC(=O)[C@@H]1Cc2ccccc2CN1C(=O)CCC(=O)c1ccccc1 [Compound 1-37] | 50 to 250 nM |
| COc1cccc(NC(=O)[C@H](CCCCN)NC(=O)[C@@H]2Cc3ccccc3CN2C(=O)CCC(=O)c2ccccc2)c1 [Compound 1-11] | 250 to 500 nM |
| Cc1nc2ccc(NC(=O)[C@H](CCN)NC(=O)[C@@H]3Cc4ccccc4CN3C(=O)CCC(=O)c3ccccc3)cc2s1 [Compound 2-64] | 250 to 500 nM |
| Cc1cc(NC(=O)C(Cc2cccnc2)NC(=O)[C@@H]2Cc3ccccc3CN2C(=O)CCC(=O)c2ccccc2)ccc1Cl (mixture of isomers) [Compound 3-3] | 250 to 500 nM |
| CC[C@H]1CCCN1C(=O)CCC(=O)N1Cc2ccccc2C[C@H]1C(=O)N[C@@H](CCN)C(=O)Nc1ccc(Cl)c(C)c1 [Compound 12-111] | < 50 nM |
| Cc1cc(NC(=O)[C@H](CCN)NC(=O)[C@@H]2Cc3ccccc3CN2C(=O)CCC(=O)N2CCS(=O)(=O)CC2)ccc1Cl [Compound 12-17] | 50 to 250 nM |
| NCCCC[C@H](NC(=O)[C@@H]1Cc2ccccc2CN1C(=O)CCC(=O)c1ccccc1)C(=O)Nc1ccc(F)c(F)c1 [Compound 1-21] | > 500 nM |
| Cc1cc(NC(=O)[C@H](CCN)NC(=O)[C@@H]2Cc3ccccc3CN2C(=O)CCC(=O)N2CC[C@@H](C)C2)ccc1Cl [Compound 12-122] | < 50 nM |

| Compound | EC50 |
| --- | --- |
| Cc1cc(NC(=O)[C@H](CCN)NC(=O)[C@@H]2Cc3ccccc3CN2C(=O)CCC(=O)c2ccccc2)cc(Br)c1Cl [Compound 2-40] | < 50 nM |
| Cc1cc(NC(=O)[C@H](CCN)NC(=O)[C@@H]2Cc3ccccc3CN2C(=O)CCC(=O)NCC2CCCCC2)ccc1Cl [Compound 12-3] | 50 to 250 nM |
| Cc1cc(NC(=O)[C@H](CCN)NC(=O)[C@@H]2Cc3ccccc3CN2C(=O)CCC(=O)N2CCOCC2)ccc1Cl [Compound 10-2] | 50 to 250 nM |
| CCc1c(NC(=O)[C@H](CCN)NC(=O)[C@@H]2Cc3ccccc3CN2C(=O)CCC(=O)c2ccccc2)ccc(Cl)c1Cl [Compound 2-48] | 50 to 250 nM |
| Cc1cc(NC(=O)[C@H](CCN)NC(=O)[C@@H]2Cc3ccccc3CN2C(=O)CCC(=O)N2[C@H](C)CCC[C@H]2C)ccc1Cl [Compound 12-141] | < 50 nM |
| CC[C@@H]1CCCN1C(=O)CCC(=O)N1Cc2ccccc2C[C@H]1C(=O)N[C@@H](CCN)C(=O)Nc1ccc(Cl)c(C)c1 [Compound 12-65] | < 50 nM |
| Cc1cc(NC(=O)[C@H](CCN)NC(=O)[C@@H]2Cc3ccccc3CN2C(=O)CCC(=O)N2CCN(C)CC2(C)C)ccc1Cl [Compound 12-103] | < 50 nM |
| Cc1cc(NC(=O)[C@H](CCCNC(C)C)NC(=O)[C@@H]2Cc3ccccc3CN2C(=O)CCC(=O)c2ccccc2)ccc1Cl [Compound 8-5] | < 50 nM |
| Cc1cc(NC(=O)[C@H](CCN)NC(=O)[C@@H]2Cc3ccccc3CN2C(=O)CCC(=O)N2CCC(F)(F)C2)ccc1Cl [Compound 12-8] | 50 to 250 nM |
| Cc1cc(NC(=O)[C@H](CCN)NC(=O)[C@@H]2Cc3ccccc3CN2C(=O)CCC(=O)N2CC[C@H](N(C)C)C2)ccc1Cl [Compound 12-49] | < 50 nM |
| Cc1cc(NC(=O)[C@H](CCN)NC(=O)[C@@H]2Cc3ccccc3CN2C(=O)CCC(=O)N2CC(C)C(C)C2)ccc1Cl (stereo partly shown) [Compound 12-68] | < 50 nM |
| Cc1cc(NC(=O)[C@H](CCN)NC(=O)[C@@H]2Cc3ccccc3CN2C(=O)CCC(=O)N2CC(C(C)(C)O)C2)ccc1Cl [Compound 12-22] | < 50 nM |
| Cc1cc(NC(=O)[C@H](CC[N+](C)(C)C)NC(=O)[C@@H]2Cc3ccccc3CN2C(=O)CCC(=O)c2ccccc2)ccc1Cl [Compound 6-7] | 50 to 250 nM |
| Cc1cc(NC(=O)[C@H](CCN)NC(=O)[C@@H]2Cc3ccccc3CN2C(=O)CCC(=O)N2CCC3(CCC3)CC2)ccc1Cl [Compound 12-59] | < 50 nM |
| CC[C@@H]1CCN(C(=O)CCC(=O)N2Cc3ccccc3C[C@H]2C(=O)N[C@@H](CCN)C(=O)Nc2ccc(Cl)c(C)c2)C1 [Compound 12-154] | < 50 nM |
| Cc1cc(NC(=O)[C@H](CCN)NC(=O)[C@@H]2Cc3ccccc3CN2C(=O)CCC(=O)NCCC(F)(F)F)ccc1Cl [Compound 12-90] | 50 to 250 nM |

The remaining lines, values ahead:

| EC50 | Compound |
| --- | --- |
| 50 to 250 nM | CCN(CC(C)(C)C)C(=O)CCC(=O)N1Cc2ccccc2C[C@H]1C(=O)N[C@@H](CCN)C(=O)Nc1ccc(Cl)c(Cl)c1F [Compound 15-40] |
| < 50 nM | CN(CC(C)(C)C)C(=O)CCC(=O)N1Cc2ccccc2C[C@H]1C(=O)N[C@@H](CCN)C(=O)Nc1ccc(Cl)c(Cl)c1F [Compound 15-43] |
| 50 to 250 nM | CN(C)[C@H]1CCN(C(=O)CCC(=O)N2Cc3ccccc3C[C@H]2C(=O)N[C@@H](CCN)C(=O)Nc2ccc(Cl)c(Cl)c2F)C1 [Compound 15-30] |
| > 500 nM | NCC[C@H](NC(=O)[C@@H]1Cc2ccccc2CN1C(=O)CCC(=O)c1ccccc1)C(=O)Nc1c(Cl)cccc1Cl [Compound 14-7] |
| 250 to 500 nM | CC(C)N(C(=O)CCC(=O)N1Cc2ccccc2C[C@H]1C(=O)N[C@@H](CCN)C(=O)Nc1ccc(Cl)c(Cl)c1F)C(C)C [Compound 15-39] |
| 50 to 250 nM | CC(C)C1CCCCN1C(=O)CCC(=O)N1Cc2ccccc2C[C@H]1C(=O)N[C@@H](CCN)C(=O)Nc1ccc(Cl)c(Cl)c1F (stereo partly shown) [Compound 15-21] |
| < 50 nM | NCC[C@H](NC(=O)[C@@H]1Cc2ccccc2CN1C(=O)CCC(=O)N1CCCCCC1)C(=O)Nc1ccc(Cl)c(Cl)c1F [Compound 15-15] |
| < 50 nM | NCC[C@H](NC(=O)[C@@H]1Cc2ccccc2CN1C(=O)CCC(=O)N1CCc2ccccc2C1)C(=O)Nc1ccc(Cl)c(Cl)c1F [Compound 15-8] |
| < 50 nM | CC1(C)CCCCN1C(=O)CCC(=O)N1Cc2ccccc2C[C@H]1C(=O)N[C@@H](CCN1CCC(O)CC1)C(=O)Nc1ccc(Cl)c(Cl)c1F [Compound 26-1, (S)—N—((S)-1-((3,4-dichloro-2-fluorophenyl)amino)-4-(4-hydroxypiperidin-1-yl)-1-oxobutan-2-yl)-2-(4-(2,2-dimethylpiperidin-1-yl)-4-oxobutanoyl)-1,2,3,4-tetrahydroisoquinoline-3-carboxamide] |
| 50 to 250 nM | O=C(CCC(=O)N1Cc2ccccc2C[C@H]1C(=O)N[C@@H](CCN1CCC(F)(F)C1)C(=O)Nc1ccc(Cl)c(Cl)c1F)c1ccccc1 [Compound 23-4] |
| 50 to 250 nM | COC1CCN(CC[C@H](NC(=O)[C@@H]2Cc3ccccc3CN2C(=O)CCC(=O)c2ccccc2)C(=O)Nc2ccc(Cl)c(C)c2)CC1 [Compound 24-1, (S)—N—((S)-1-((4-chloro-3-methylphenyl)amino)-4-(4-methoxypiperidin-1-yl)-1-oxobutan-2-yl)-2-(4-oxo-4-phenylbutanoyl)-1,2,3,4-tetrahydroisoquinoline-3-carboxamide] |
| < 50 nM | N#Cc1c(NC(=O)[C@H](CCN)NC(=O)[C@@H]2Cc3ccccc3CN2C(=O)CCC(=O)c2ccccc2)ccc2c1CCC2 [Compound 35-1, (S)—N—((S)-4-amino-1-((4-cyano-2,3-dihydro-1H-inden-5-yl)amino)-1-oxobutan-2-yl)-2-(4-oxo-4-phenylbutanoyl)-1,2,3,4-tetrahydroisoquinoline-3-carboxamide] |
| 250 to 500 nM | Cc1cccc(F)c1NC(=O)[C@H](CCN)NC(=O)[C@@H]1Cc2ccccc2CN1C(=O)CCC(=O)c1ccccc1 [Compound 14-5] |
| < 50 nM | NCC[C@H](NC(=O)[C@@H]1Cc2ccccc2CN1C(=O)CCC(=O)N1CCN2CCC[C@@H]2C1)C(=O)Nc1ccc(Cl)c(Cl)c1F [Compound 15-49] |
